Test results reported in patent US4690935A, “Inhibition of tumor growth and metastasis with calcium channel blocker compounds” (Wayne State University, priority 1983, dated 1987).
“Also recorded” adds a separate entry of the source. Where two headings read alike, the source gives them in different places.

System: Walker 256 L-Pam tumor cell
Assay: Walker 256 L-Pam tumor cell attachment to plastic
Type: cell-based, rat
Settings: 0.04 mg/ml; for effect on tumor cell adhesion to plastic wells (in words): thirty minutes preincubation; for inhibition at 40 µg/mL: Rattus norvegicus, Walker 256, 1 h, 1 h plating, read-out: % Inhibition vs control (attachment to plastic)
Protocol: Walker ^256 L-Pam tumor cells were plated at approximately 5×10^5 cells/flask. The cells were labelled with ^125 I-UDR (iodinated uridine deoxyribonucleic acid) at 0.5 microcuries/ml media (5.0 microcurie/flask). Cells were incubated for approximately 24 hours and the cell count/flask was determined to be 8.14×10^5 cell/flask. The cells from each flask were counted (gamma counter) and found to have an average of 0.24 cpm/cell.
Platelet enhanced tumor cell attachment to plastic was tested using four conditions: tumor cell alone (Condition A), tumor cells plus washed platelets (Condition B), tumor cells plus platelet poor plasma (Condition C) and tumor cells, washed platelets and platelet poor plasma (Condition D).
Walker 256 L-Pam tumor cells obtained from culture are radiolabeled with ^125 I-UDR as described previously. The radiolabeled cells are removed from T-75 flasks with trypsin (2 milliliters of 0.25% trypsin and 0.01% EDTA) in MEM. After two minutes, the flasks are washed 3X with trypsin "quench," 10% fetal calf serum in MEM, to quench and remove the trypsin in order to prevent cell lysis. The tumor cells are removed from the flasks in MEM and adjusted to 2.5×10^5 cells /milliliter. One hundred microliters of the tumor cell suspension (2.5×10^4 cells) were plated in […] tissue culture wells (Costar) and overlaid with 250 microliters of Wash Solution #2 (see Platelet Prep). The cells were incubated at room temperature (approximately 22° C.) for 5 minutes. Following this incubation 10 microliters of 7.35 mg/ml CaCl2 were added to the culture wells, 10 microliters of platelet poor plasma (diluted 1:32 with platelet Wash Solution #2) were added to culture wells for Conditions C and D and 250 microliters of washed platelets (3×10^8 /ml final concentration) were added to culture wells for Conditions B and D. Where appropriate, Wash Solution #2 was added to wells (Conditions A and C) so that all wells had the same final volume of solutions. The wells were incubated for one hour at 37° C. After the one hour incubation, the media containing any unattached tumor cells were removed by aspiration and then the wells were washed 2X with 1 ml of sodium phosphate buffer (PBS). The adhering cells were removed by trypsinization (as described above) and counts per wells determined using a gamma counter. Results were determined as total cpm plated per well.
The effect of BAY e 9736 on Walker 256 L-Pam tumor cell adhesion to plastic wells […] was determined by pretreating monodispersed Walker 256 L-Pam tumor cells with BAY e 9736 dissolved in DMSO prior to plating the cells. Except for the pretreatment, plastic adhesion studies were performed as previously described in the literature. A 8 mg sample of BAY e 9736 was dissolved in 1 ml of DMSO. Five microliters of the 8 mg/ml BAY e 9736 was added to each 1 ml of tumor cells.

Which “effect on tumor cell adhesion to plastic wells (in words)” value does the source give for `COCCOC(=O)C1=C(C)NC(C)=C(C(=O)OC(C)C)C1c1cccc([N+](=O)[O-])c1` (stereo not drawn) [BAY e 9736, 1,4-dihydro-2,6-dimethyl-4-(3' nitrophenyl)-pyridine-3-(beta-methyoxyethylester)-5-(isopropyl ester)] here?
Its value is “decreased the percent of cells adhering to the plastic wells; also recorded: significant in all groups tested”.

And the “effect on tumor cell adhesion to plastic wells (in words)” value (listed as nimodipine)?
Its value is “decreases or inhibits the adhesion of tumor cells to plastic incubation wells”.

What about the inhibition at 40 µg/mL (A = tumor cells alone) of the same molecule?
Its inhibition at 40 µg/mL is 72%.

And the inhibition at 40 µg/mL (B = tumor cells + platelets)?
The inhibition at 40 µg/mL was 50 ± 8.2%.

And the inhibition at 40 µg/mL (C = tumor cells + PPP)?
Its inhibition at 40 µg/mL is 44 ± 9.2%.

What about the inhibition at 40 µg/mL (D = tumor cells + PPP + platelets) of the same molecule?
The inhibition at 40 µg/mL was 40 ± 7.5%.
